Laboratory results published in patent publication US11713318B2, “Short conjugated oligoelectrolytes and uses thereof” (The Regents Of The University Of California, priority 2018, dated 2023).
Like-named read-outs stand apart in the source and are kept apart here.

What was measured:
E. coli ATCC25922 (WT) = experiment: MIC against resistant strains, Tables 5a-5d; format: cell-based; details: Escherichia coli, n = 3
Procedure: (§1) Compounds described herein were evaluated for growth inhibition against a variety of bacterial species, including strains that have developed resistance to common antibacterial treatments, according to the procedure described herein, or by analogous procedures known to those skilled in the art. Resistant bacterial strains used for compound testing include methicillin-resistant S. aureus (MRSA), vancomycin resistant Enterococci (VRE) and various multi-drug resistant (MDR) strains commonly associated with hospital-acquired (nosocomial) infections, including, but not limited to A. baumannii, K. pnuemoniae, and E. cloacae.

[1] = test system: A. baumannii 1674627 (MDR); experiment: MIC against resistant strains, Tables 5a-5d; format: cell-based; details: Acinetobacter baumannii, n = 3
Procedure: as §1

E. faecium 1674620 (VRE) = experiment: MIC against resistant strains, Tables 5a-5d; format: cell-based; details: Enterococcus faecium, n = 3
Procedure: as §1

[2] = test system: S. aureus ATCC 33591 (MRSA); experiment: MIC against resistant strains, Tables 5a-5d; format: cell-based; details: Staphylococcus aureus, n = 3
Procedure: as §1

[3] = test system: P. aeruginosa 1674623 (MDR); experiment: MIC against resistant strains, Tables 5a-5d; format: cell-based; details: Pseudomonas aeruginosa, n = 3
Procedure: as §1

[4] = test system: A. baumannii CDC0290 (MDR); experiment: MIC against resistant strains, Tables 5a-5d; format: cell-based; details: Acinetobacter baumannii, n = 3
Procedure: as §1

[5] = test system: S. aureus ATCC BAA-1717 (MRSA); experiment: MIC against resistant strains, Tables 5a-5d; format: cell-based; details: Staphylococcus aureus, n = 3
Procedure: as §1

[6] = test system: K. pneumoniae CDC0010 (MDR); experiment: MIC against resistant strains, Tables 5a-5d; format: cell-based; details: Klebsiella pneumoniae, n = 3
Procedure: as §1

[7] = test system: K. pneumoniae ATCC BAA-2473 (MDR); experiment: MIC against resistant strains, Tables 5a-5d; format: cell-based; details: Klebsiella pneumoniae, ATCCBAA2473, n = 3
Procedure: as §1

[8] = test system: P. aeruginosa CDC0248 (MDR); experiment: MIC against resistant strains, Tables 5a-5d; format: cell-based; details: Pseudomonas aeruginosa, n = 3
Procedure: as §1

[9] = test system: E. cloacae 1744299 (ESBL); experiment: MIC against resistant strains, Tables 5a-5d; format: cell-based; details: Enterobacter cloacae, n = 3
Procedure: as §1

Cytotoxicity, MTT assay = format: cell-based; details: human, Hep G2 (ATCC HB-8065) cells, Hep G2
Procedure: (§2) Before removing the frozen cell stocks from liquid nitrogen, culture medium was pre-warmed to 37° C. The frozen tube was then removed from liquid nitrogen and placed into a 37° C. water bath and shaken gently to thaw the cell stock as quickly as possible. A small portion of the pre-warmed culture medium was added to the cell solution. The cell suspension was then centrifuged at 1000 r/min for 3 minutes. The supernatant was discarded and the cells were resuspended in fresh culture medium.
(§3) NIH 3T3 (ATCC CRL-1658) and Hep G2 (ATCC HB-8065) cells were cultured with DMEM+10% FBS in 100 mm dishes. Cells were lifted for subculture or testing when confluence reached ˜60% by treating with 1× trypsin (incubated for 3 min at 37° C.). J774 (ATCC TIB-67) cells were cultured with DMEM+10% FBS in 100 mm dishes. Cells were lifted for subculture or testing when confluence reached ˜80% using a cell scraper. RAW264.7 (ATCC TIB-71) cells were cultured with DMEM+10% heat-inactivated FBS+1% pen/strep in T75 flasks. Cells were lifted for subculture or testing when confluence reached ˜80% using a cell scraper.
(§4) • 1. Cells were lifted and resuspended in culture medium. The number of cells in the cell suspension was determined using an auto-cell counter: 10 μL of the cell suspension was mixed with 10 μL 1× trypan blue (filtered with 0.2 μm PES filter) and the mixture was loaded onto a cell counting slide. Based on the concentration of viable cells, the cell suspension was further diluted to achieve the desired density. • 2. Cells were seeded in 96 well plates by adding 100 μL final cell suspension column-by-column using a multichannel pipette (5000 cells/well for NIH 3T3, 10000 cells/well for Hep G2, J774 and RAW264.7). The outer wells were block with PBS to reduce the effects of evaporation. One column was filled with only culture medium as a blank. Cells were incubated overnight before adding the test articles. • 3. Test articles were dissolved in 1×PBS (or DMSO) to obtain stocks solution. Stock solutions were pre-warmed before use. […] Serial dilutions (2-fold) of the 10× solutions were made in sterile culture tubes by diluting in 1×PBS (8 dilutions to yield 9 test concentrations). 900 μL of culture media was added to each tube to obtain final drug solution containing 10% PBS (or less than 1% DMSO) for each experimental group. • 4. The original culture medium was gently removed from the 96-well plates using a pipette. 100 μL of the test article solutions prepared in Step 3 were added to rows 2-7 of each column to obtain six replicates for each concentration. Plates were then incubated for 24 hours. • 5. MTT solutions were prepared by dissolving commercial MTT powder in 1×PBS to a concentration of 5 mg/mL. After passing through a 0.22 μm PES filter, the MTT solution was divided into 1 mL portions in sterile centrifuge tubes and stored at −20° C. • 6. MTT stock solutions were removed from the freezer to thaw at room temperature. Before adding MTT solutions, cell cultures were visually inspected and imaged using a microscope (to use as a comparison with MTT results). 10 μL of the 5 mg/mL MTT solution was added to each well and the plate was incubated for 4 hours. • 7. After 4 h incubation, the culture medium/MT solution was removed gently using a pipette. 100 μL of DMSO was added to each well using a multichannel pipette. The 96-well plates were analyzed in a plate reader using the following method: shake for 5 minutes, wait for 30 seconds, and measure absorbance at 570 nm. • 8. Data processing: The average of background Abg was calculated from the blank column. All other data was first treated by subtracting Abg. The average A. and standard deviation Se of each experimental group and the average Ac and standard deviation Sc for control group (with pure culture medium incubation) were then calculated. The cell viability was determined as Ae/Ac×100% and corresponding error as Se/Ae×100%. Significant outliers in any experimental or control group were removed. […]

[10] = test system: Hep G2 (ATCC HB-8065) cells; experiment: Cytotoxicity, MTT assay; format: cell-based; details: Hep G2, MTT, 24 hours incubation
Procedure: as §2, §3, §4

E. coli K12 (ATCC 47076) = experiment: MIC broth microdilution method, Table 3
[11] = test system: K. aerogenes (ATCC 13048); experiment: MIC broth microdilution method, Table 3; details: K. aerogenes (−); LB medium; less than 10% relative growth
Hep G2 cells = experiment: Cytotoxicity tested by Eurofins Pharma Discovery Services; format: cell-based
HRPTEpiC = experiment: as above; format: cell-based; details: data provided by Eurofins
[12] = test system: RAW264.7 (ATCC TIB-71) cells; experiment: Cytotoxicity, MTT assay; format: cell-based, murine; details: RAW 264.7
Procedure: as §2, §3
• 1. Cells were lifted and resuspended in culture medium. The number of cells in the cell suspension was determined using an auto-cell counter: 10 μL of the cell suspension was mixed with 10 μL 1× trypan blue (filtered with 0.2 μm PES filter) and the mixture was loaded onto a cell counting slide. Based on the concentration of viable cells, the cell suspension was further diluted to achieve the desired density. • 2. […] The 96-well plates were analyzed in a plate reader using the following method: shake for 5 minutes, wait for 30 seconds, and measure absorbance at 570 nm. • 8. Data processing: The average of background Abg was calculated from the blank column. […] The average A. and standard deviation Se of each experimental group and the average Ac and standard deviation Sc for control group (with pure culture medium incubation) were then calculated. The cell viability was determined as Ae/Ac×100% and corresponding error as Se/Ae×100%. […]

[13] = test system: S. epidermidis (ATCC 14990); experiment: MIC broth microdilution method, Table 3; details: S. epidermidis (+); BHI medium; less than 10% relative growth
J774 (ATCC TIB-67) cells = experiment: Cytotoxicity, MTT assay; format: cell-based
Procedure: as §2, §3, §4

[14] = test system: NIH 3T3 (ATCC CRL-1658) cells; experiment: Cytotoxicity, MTT assay; format: cell-based; details: NIH 3T3
Procedure: as §2, §3, §4

[15] = test system: primary human hepatocytes; experiment: Cytotoxicity tested by Eurofins Pharma Discovery Services; format: cell-based
[16] = Solubility in aqueous media; format: physicochemical; details: reason why efficacy could not be detected
[17] = Homo sapiens, HepG2, 24 h, read-out: IC50
[18] = at the concentration given as IC50 bound

Row | MIC (E. coli ATCC25922 (WT)) [µg/mL] | MIC [1] [µg/mL] | MIC (E. faecium 1674620 (VRE)) [µg/mL] | MIC [2] [µg/mL] | MIC [3] [µg/mL] | MIC [4] [µg/mL] | MIC [5] [µg/mL] | MIC [6] [µg/mL] | MIC [7] [µg/mL] | MIC [8] [µg/mL] | MIC [9] [µg/mL] | MIC (E. coli K12 (ATCC 47076); Escherichia coli, ATCC47076) [µg/mL] | Compound | IC50 [10, 17] [µg/mL] | also measured
1 | 2 | 2 | 0.25 | 2 | 16 | 2 | 1 | 2 | 2 | 32 | 2 | 8 | CCCCCC[N+](C)(C)CCCOc1cc(/C=C/c2ccc(/C=C/c3cc(OCCC[N+](C)(C)CCCCCC)cc(OCCC[N+](C)(C)CCCCCC)c3)cc2)cc(OCCC[N+](C)(C)CCCCCC)c1 [Formula BB] | 15 | viability at 24 h (Cytotoxicity, MTT assay; at concentrations efficacious against bacterial species (0.25-4 μg/mL), read-out: cell viability): ~90%; IC50 [10]: 15.1 µg/mL
2 | 4 | 64 | 1 | 1 | > 64 | 64 | 1 | 32 | 8 | > 64 | 4 | 8 | CCC[N+](C)(C)CCCCOc1cc(/C=C/c2ccc(/C=C/c3cc(OCCCC[N+](C)(C)CCC)cc(OCCCC[N+](C)(C)CCC)c3)cc2)cc(OCCCC[N+](C)(C)CCC)c1 [Formula Q] | > 128 | viability at 24 h (Cytotoxicity, MTT assay; at the concentration given as IC50 bound, read-out: cell viability at the highest or lowest test concentration): 91%
3 | – | – | – | – | – | – | – | – | – | – | – | – | Colistin [reference compound] | – | MIC [11]: 2 µg/mL; cell viability at the highest or lowest test concentration (Hep G2 cells; Hep G2, Eurofins, at the concentration given as IC50 bound): (100%); IC50 (Hep G2 cells; Hep G2, data provided by Eurofins): >324 µg/mL; IC50 (HRPTEpiC): 215 µg/mL; IC50 ([12]; MTT, 24 hours incubation): >20 µg/mL; cell viability at the highest or lowest test concentration [12, 18]: (109%); MIC [13]: >64 µg/mL; IC50 (J774 (ATCC TIB-67) cells; MTT, 24 hours incubation): >128 µg/mL; cell viability at the highest or lowest test concentration (J774 (ATCC TIB-67) cells; [18]): (115%); IC50 ([14]; MTT, 24 hours incubation): >128 µg/mL; cell viability at the highest or lowest test concentration [14, 18]: (104%); MIC (E. coli K12 (ATCC 47076); E. coli K12 (−), LB medium, less than 10% relative growth): 1 µg/mL; cell viability at the highest or lowest test concentration ([15]; Eurofins, at the concentration given as IC50 bound): (101%); IC50 ([15]; data provided by Eurofins): >324 µg/mL
4 | – | – | – | – | – | – | – | – | – | – | – | – | CC(C)(C)c1cc[n+](CCCCCCOc2cc(/C=C/c3cc(OCCCCCC[n+]4ccc(C(C)(C)C)cc4)cc(OCCCCCC[n+]4ccc(C(C)(C)C)cc4)c3)cc(OCCCCCC[n+]3ccc(C(C)(C)C)cc3)c2)cc1.[I-].[I-].[I-].[I-] [Formula D] | 20.7 | solubility [16]: low solubility
